The assay has as its system P388 leukemia ip, CD2F1 mice, survival T/C. The assay is described as follows: NCI In Vivo Anticancer Drug Screen. Data for tumor model P388 Leukemia (intraperitoneal) in CD2F1 (CDF1) mice. The note with it: endpoint: median survival time, higher = longer survival. Put shortly: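 Mice carrying the transplanted tumor received test compound or vehicle. Survival was recorded in each group, and the value is the treated-group measurement divided by that of the vehicle-treated control group.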

Where [1] appears, read: dose: 100.0 mg/kg/injection, schedule: Q04DX003 (ip), vehicle: saline with Tween-80.
Setting [2] is: dose: 200.0 mg/kg/injection, schedule: Q04DX003 (ip), vehicle: saline with Tween-80.
Setting [3] is: dose: 400.0 mg/kg/injection, schedule: Q04DX003 (ip), vehicle: saline with Tween-80.
[4] abbreviates: dose: 25.0 mg/kg/injection, schedule: Q01DX009 (ip), vehicle: saline with Tween-80.
[5] abbreviates: dose: 50.0 mg/kg/injection, schedule: Q01DX009 (ip), vehicle: Klucel (hydroxypropylcellulose) (HPC).
Where [6] appears, read: dose: 100.0 mg/kg/injection, schedule: Q01DX009 (ip), vehicle: Klucel (hydroxypropylcellulose) (HPC).
Setting [7] is: dose: 200.0 mg/kg/injection, schedule: Q01DX009 (ip), vehicle: Klucel (hydroxypropylcellulose) (HPC).
Where [8] appears, read: dose: 60.0 mg/kg/injection, schedule: Q01DX005 (ip), vehicle: saline with Tween-80.
[9] abbreviates: dose: 120.0 mg/kg/injection, schedule: Q01DX005 (ip), vehicle: saline with Tween-80.
The mark [10] stands for this setting: dose: 240.0 mg/kg/injection, schedule: Q01DX005 (ip), vehicle: saline with Tween-80.
The mark [11] stands for this setting: dose: 50.0 mg/kg/injection, schedule: Q01DX009 (ip), vehicle: saline.
[12] abbreviates: dose: 100.0 mg/kg/injection, schedule: Q01DX009 (ip), vehicle: saline.
[13] abbreviates: dose: 50.0 mg/kg/injection, schedule: Q01DX005 (ip), vehicle: Klucel (hydroxypropylcellulose) (HPC).
[14] abbreviates: dose: 100.0 mg/kg/injection, schedule: Q01DX005 (ip), vehicle: Klucel (hydroxypropylcellulose) (HPC).
Setting [15] is: dose: 200.0 mg/kg/injection, schedule: Q01DX005 (ip), vehicle: Klucel (hydroxypropylcellulose) (HPC).
[16] abbreviates: dose: 100.0 mg/kg/injection, schedule: Q01DX001 (ip), vehicle: saline with Tween-80.
[17] abbreviates: dose: 200.0 mg/kg/injection, schedule: Q01DX001 (ip), vehicle: saline with Tween-80.
Where [18] appears, read: dose: 400.0 mg/kg/injection, schedule: Q01DX001 (ip), vehicle: saline with Tween-80.
Where [19] appears, read: dose: 50.0 mg/kg/injection, schedule: Q01DX005 (ip), vehicle: saline.
Where [20] appears, read: dose: 100.0 mg/kg/injection, schedule: Q01DX005 (ip), vehicle: saline.

Values joined by “and” are separate entries in the source; they are usually repeats but may differ in a detail not shown here. Equal values may be shown once. Toxic doses and inconclusive results are not listed.

Consider `c1ccc2[nH]cnc2c1`, for which the T/C is, setting by setting: (dose: 20.0 mg/kg/injection, schedule: Q04DX003 (ip), vehicle: other) 100 % of control; (dose: 40.0 mg/kg/injection, schedule: Q04DX003 (ip), vehicle: other) 99 % of control; (dose: 40.0 mg/kg/injection, schedule: Q04DX003 (oral), vehicle: other) 100 % of control; (dose: 50.0 mg/kg/injection, schedule: Q01DX009 (ip), vehicle: suspension in saline) 98 % of control; (dose: 80.0 mg/kg/injection, schedule: Q04DX003 (ip), vehicle: other) 95 % of control; (dose: 100.0 mg/kg/injection, schedule: Q01DX009 (ip), vehicle: suspension in saline) 90 % of control. Besides, the T/C under setting [1] is 100 % of control; the T/C (dose: 160.0 mg/kg/injection, schedule: Q04DX003 (ip), vehicle: other) was 100 % of control; the T/C (dose: 160.0 mg/kg/injection, schedule: Q04DX003 (oral), vehicle: other) is 104 % of control; the T/C (dose: 200.0 mg/kg/injection, schedule: Q01DX009 (ip), vehicle: suspension in saline) was 106 % of control; the T/C under setting [2] was 100 % of control; the T/C (dose: 320.0 mg/kg/injection, schedule: Q04DX003 (ip), vehicle: other) is 100 % of control. For the same compound, the T/C under setting [3] is 90 % of control.
`COc1ccc(C(=O)CC(C#N)c2ccc(OC)c(OC)c2)cc1OC` (centres undefined): the T/C reads like this: under setting [1], 90 % of control; under setting [2], 86 % of control; under setting [3], 86 % of control.
For `CC(C)Cc1cn(O)c2nc(=N)nc(N)c-2n1`, the T/C was 100 % of control (dose: 12.5 mg/kg/injection, schedule: Q01DX009 (ip), vehicle: saline with Tween-80); 93 % of control under setting [4]; 101 % of control (dose: 50.0 mg/kg/injection, schedule: Q01DX009 (ip), vehicle: saline with Tween-80).
`O=C1CC2CCCCC2CC1c1ccccc1` (centres undefined): the T/C was 104 % of control under setting [5], 88 % of control under setting [6] and 95 % of control under setting [7].
`CCCCCC(=O)C(C)C1(C(=O)OC)NC(=S)NC(=O)C1C#N` (centres undefined): the T/C reads like this: (dose: 60.0 mg/kg/injection, schedule: Q01DX005 (ip), vehicle: Klucel (hydroxypropylcellulose) (HPC)) 105 % of control; (dose: 120.0 mg/kg/injection, schedule: Q01DX005 (ip), vehicle: Klucel (hydroxypropylcellulose) (HPC)) 98 % of control; (dose: 240.0 mg/kg/injection, schedule: Q01DX005 (ip), vehicle: Klucel (hydroxypropylcellulose) (HPC)) 97 % of control.
Take `O=C1c2ccccc2C(=O)N1C1Cc2nc3ccccc3n2C1=O` (centres undefined): the T/C under setting [8] is 98 % of control, the T/C under setting [9] was 93 % of control and the T/C under setting [10] is 89 % of control.
Regarding `CC(=Nc1ccccc1)C1=C(O)C(Cc2ccccc2)NC1=O` (centres undefined), the T/C under setting [4] is 106 % of control.
Take `COc1cc2c(c(OC)c1OC)-c1ccc(SC)c(=O)cc1C(NC(=O)COP(=O)(O)OCC(=O)NC1CCc3cc(OC)c(OC)c(OC)c3-c3ccc(SC)c(=O)cc31)CC2` (centres undefined): the T/C by setting is: (dose: 0.78 mg/kg/injection, schedule: Q01DX009 (ip), vehicle: water) 121 % of control; (dose: 1.56 mg/kg/injection, schedule: Q01DX009 (ip), vehicle: water) 114 % of control; (dose: 6.25 mg/kg/injection, schedule: Q01DX009 (ip), vehicle: water) 150 % of control.
With `CCCCCCC(/C=C/c1ccc(Cl)c(Cl)c1)=N\NC(N)=O`, the T/C by setting is: under setting [11], 104 % of control; under setting [12], 100 % of control; (dose: 200.0 mg/kg/injection, schedule: Q01DX009 (ip), vehicle: saline) 98 % of control.
With `COc1cc(C(=O)NNC(C)C)cc(OC)c1OC`, the T/C was 104 % of control under setting [13], 100 % of control under setting [14] and 107 % of control under setting [15].
Regarding `CC1(C)C=Cc2c(ccc(C(=O)Cc3ccccc3)c2O)O1`, the T/C by setting is: (dose: 50.0 mg/kg/injection, schedule: Q01DX005 (ip), vehicle: saline with Tween-80) 99 % of control; (dose: 100.0 mg/kg/injection, schedule: Q01DX005 (ip), vehicle: saline with Tween-80) 96 % of control; (dose: 200.0 mg/kg/injection, schedule: Q01DX005 (ip), vehicle: saline with Tween-80) 93 % of control.
Take `CC(C)(C)N1C(=O)NCS1(=O)=O`: the T/C is 100 % of control under setting [13], 100 % of control under setting [14] and 115 % of control under setting [15].
Turning to `CCCCCCCC[N+](C)([O-])CCCCCC[N+](C)([O-])CCCCCCCC` (centres undefined), the T/C was 99 % of control under setting [11] and 94 % of control under setting [12].
As to `COc1cccc2c1C(=O)c1c(O)c3c(c(O)c1C2=O)C[C@@](O)(C(C)=O)C[C@@H]3OC1CC(N2CCOCC2)C(O)C(C)O1` (some centres undefined), the T/C was 112 % of control (dose: 25.0 micrograms/kg/injection, schedule: Q04DX003 (ip), vehicle: water); 101 % of control and 98 % of control and 108 % of control (dose: 50.0 micrograms/kg/injection, schedule: Q04DX003 (ip), vehicle: water); 115 % of control [middle of 4 runs] (dose: 100.0 micrograms/kg/injection, schedule: Q04DX003 (ip), vehicle: water).
For `O=C(Nc1c(Cl)cc(Cl)cc1Cl)ON=C1CCCCC1`, the T/C by setting is: under setting [8], 96 % of control; under setting [9], 102 % of control.
As for `COC(=O)CC1C=CC(OC)[C@@]2(C)C(=O)C(OC)=CC(=O)[C@@H]12` (some centres undefined), the T/C under setting [8] was 101 % of control, the T/C under setting [9] was 105 % of control and the T/C under setting [10] was 91 % of control.
For `C1CCN(CCCCN2CCCCC2)CC1`, the T/C reads like this: (dose: 25.0 mg/kg/injection, schedule: Q01DX009 (ip), vehicle: saline) 93 % of control; under setting [11], 88 % of control.
In the case of `Cc1nn(-c2ccccc2)c(=O)n2nnnc12`, the T/C by setting is: under setting [16], 96 % of control; under setting [17], 94 % of control; under setting [18], 96 % of control.
As to `CCN(CC)CCOC1C=C(C)C2CC1C2(C)C` (centres undefined), the T/C is 101 % of control under setting [19] and 101 % of control under setting [20].
With `COc1ccc(/C=C/c2ccc3ccccc3n2)c(OC)c1`, the T/C (dose: 100.0 mg/kg/injection, schedule: Q01DX009 (ip), vehicle: saline with Tween-80) is 100 % of control; the T/C (dose: 200.0 mg/kg/injection, schedule: Q01DX009 (ip), vehicle: saline with Tween-80) is 100 % of control; the T/C (dose: 400.0 mg/kg/injection, schedule: Q01DX009 (ip), vehicle: saline with Tween-80) is 100 % of control.
In the case of `FC(F)(F)c1ccc2[nH]c3c(c2c1)CCCC3`, the T/C under setting [16] is 102 % of control, the T/C under setting [17] was 102 % of control and the T/C under setting [18] was 103 % of control.
Turning to `COC(=O)Nc1c2c(nc3ccccc13)-c1ccccc1C(C)(C)C2OC` (centres undefined), the T/C was 99 % of control under setting [13], 108 % of control under setting [14] and 104 % of control under setting [15].
As to `COC(=O)C1CC(C)N1C1CCCCC1` (centres undefined), the T/C runs as follows: under setting [19], 97 % of control; under setting [20], 97 % of control; (dose: 200.0 mg/kg/injection, schedule: Q01DX005 (ip), vehicle: saline) 101 % of control.
For `O=C1CSCc2sccc21`, the T/C is 94 % of control under setting [8], 106 % of control under setting [9] and 101 % of control under setting [10].
In the case of `Nc1cc2c(=O)c3cc(Cl)cc(Cl)c3[nH]c2c2c1C(=O)c1ccccc1C2=O`, the T/C runs as follows: under setting [5], 99 % of control; under setting [6], 105 % of control; under setting [7], 100 % of control.

For the origin of these results see PubChem BioAssay AID330 (DTP/NCI, 2004).
